Read-outs that look alike come from different tables or passages of the source.
Test system: HL60 cell line
Assay: Combination study, modulatory effect: IC50 of chemotherapy drug without and with cannabinoid-pair (72 h)
Format: cell-based
Details: Homo sapiens, HL-60, 72 h, HL60, 72 h, read-out: IC50 for percentage cell viability
Method: FIG. 2. Sensitising chemotherapy action with low doses of cannabinoids. […] The effect of a low dose of CBD/THC or CBD/CBG on the activity of CYT and VIN was also assessed. IC50 values for percentage cell viability were determined by emax models.
Cytarabine (CYT), (Sigma) and vincristine (VIN), (Sigma) were reconstituted in PBS at a stock concentration of 10 mM, and kept at −20° C. for no more than four weeks.
The ability of cannabinoids to modify the efficacy CYT and VIN was studied by assessing and comparing the IC50 of the anti-leukaemia drugs in the absence and presence of the cannabinoids.
The cannabinoids tested were CBD+CBG and CBD+THC, and these were used at a single total sub-optimal concentration of 1 μM in CEM and 5 μM HL60.
Drugs were added (CYT and VIN over a range of concentrations) and cell number determined after 72 h.
The ability of a sub-effective concentration of cannabinoid to alter the efficacy of CYT or VIN was determined by comparing the IC50s of the chemotherapy agents in the absence or presence of the cannabinoid-pair.

`Nc1ccn([C@@H]2O[C@H](CO)[C@@H](O)[C@@H]2O)c(=O)n1` [cytarabine, Cytarabine] showed an IC50 (CBD+CBG added (sub-optimal total 5 μM in HL60)) of 150 nM, an IC50 (CBD+THC added (sub-optimal total 5 μM in HL60)) of 8 nM and an IC50 (chemotherapy drug alone) of 100 nM.
